{
  "source": "PubChem BioAssay (NCI)",
  "experiment_in_all_cases": "NCI tumour cell line growth inhibition, 48 h",
  "key": {"[1]": {"test_system": "PC-3 prostate"}, "[2]": {"test_system": "SW-620 colon"}, "[3]": {"test_system": "OVCAR-5 ovarian"}, "[4]": {"test_system": "DU-145 prostate"}, "[5]": {"test_system": "786-0 renal"}, "[6]": {"test_system": "HS 578T breast"}, "[7]": {"test_system": "KM12 colon"}, "[8]": {"test_system": "MCF7 breast"}, "[9]": {"test_system": "SNB-75 CNS"}, "[10]": {"test_system": "SK-MEL-28 melanoma"}, "[11]": {"test_system": "U251 CNS"}, "[12]": {"test_system": "HT29 colon"}, "[13]": {"test_system": "MOLT-4 leukemia"}, "[14]": {"test_system": "A549 NSCLC"}, "[15]": {"test_system": "SF-268 CNS"}, "[16]": {"test_system": "CCRF-CEM leukemia"}, "[17]": {"test_system": "UACC-257 melanoma"}, "[18]": {"test_system": "SF-539 CNS"}, "[19]": {"test_system": "BT-549 breast"}, "[20]": {"test_system": "SK-MEL-2 melanoma"}, "[21]": {"test_system": "NCI-H460 lung"}, "[22]": {"test_system": "OVCAR-4 ovarian"}, "[23]": {"test_system": "IGROV1 ovarian"}, "[24]": {"test_system": "ACHN renal"}, "[25]": {"test_system": "RPMI-8226 leukemia"}, "[26]": {"test_system": "SF-295 CNS"}, "[27]": {"test_system": "NCI-H522 lung"}, "[28]": {"test_system": "T-47D breast"}, "[29]": {"test_system": "SK-MEL-5 melanoma"}, "[30]": {"test_system": "MDA-MB-231 breast"}},
  "note": "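Following 48 hours of exposure in 96-well plates, responses at five concentrations were used to interpolate endpoints linearly. At the GI50, growth is halved. TGI: concentration producing complete growth inhibition.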",
  "data": [
    {"smiles": "COc1ccc2[nH]c(O)c(N=NC(=O)COc3ccc(NC(=O)Nc4ccccc4)cc3)c2c1", "values": [
      {"measurement": "GI50", "setting": "[1]", "result": 14.5, "unit": "µM"},
      {"measurement": "TGI", "setting": "[1]", "result": 36.3, "unit": "µM"},
      {"measurement": "GI50", "setting": "[2]", "result": 15.2, "unit": "µM"},
      {"measurement": "TGI", "setting": "[2]", "result": 43.3, "unit": "µM"},
      {"measurement": "GI50", "setting": "[3]", "result": 18.3, "unit": "µM"},
      {"measurement": "TGI", "setting": "[3]", "result": 45.4, "unit": "µM"},
      {"measurement": "GI50", "setting": "[4]", "result": 30.9, "unit": "µM"},
      {"measurement": "TGI", "setting": "[4]", "result": "> 100", "unit": "µM"},
      {"measurement": "GI50", "setting": "[5]", "result": 13.6, "unit": "µM"},
      {"measurement": "TGI", "setting": "[5]", "result": 30.6, "unit": "µM"},
      {"measurement": "GI50", "setting": "[6]", "result": 17.3, "unit": "µM"},
      {"measurement": "TGI", "setting": "[6]", "result": 75.6, "unit": "µM"},
      {"measurement": "GI50", "setting": "[7]", "result": 684, "unit": "nM"},
      {"measurement": "TGI", "setting": "[7]", "result": 21, "unit": "µM"},
      {"measurement": "GI50", "setting": "[8]", "result": 17.4, "unit": "µM"},
      {"measurement": "TGI", "setting": "[8]", "result": 40.2, "unit": "µM"},
      {"measurement": "GI50", "setting": "[9]", "result": 10.7, "unit": "µM"},
      {"measurement": "TGI", "setting": "[9]", "result": 27.3, "unit": "µM"},
      {"measurement": "GI50", "setting": "[10]", "result": 16.6, "unit": "µM"},
      {"measurement": "TGI", "setting": "[10]", "result": 30.7, "unit": "µM"},
      {"measurement": "GI50", "setting": "[11]", "result": 15.7, "unit": "µM"},
      {"measurement": "TGI", "setting": "[11]", "result": 37.6, "unit": "µM"},
      {"measurement": "GI50", "setting": "[12]", "result": 26, "unit": "µM"},
      {"measurement": "TGI", "setting": "[12]", "result": "> 100", "unit": "µM"},
      {"measurement": "GI50", "setting": "[13]", "result": 23.7, "unit": "µM"},
      {"measurement": "TGI", "setting": "[13]", "result": "> 100", "unit": "µM"},
      {"measurement": "GI50", "setting": "[14]", "result": 21.9, "unit": "µM"},
      {"measurement": "TGI", "setting": "[14]", "result": 58.4, "unit": "µM"},
      {"measurement": "GI50", "setting": "[15]", "result": 14.3, "unit": "µM"},
      {"measurement": "TGI", "setting": "[15]", "result": 34.3, "unit": "µM"},
      {"measurement": "GI50", "setting": "[16]", "result": 33.1, "unit": "µM"},
      {"measurement": "TGI", "setting": "[16]", "result": "> 100", "unit": "µM"},
      {"measurement": "GI50", "setting": "[17]", "result": 19.5, "unit": "µM"},
      {"measurement": "TGI", "setting": "[17]", "result": 41.5, "unit": "µM"},
      {"measurement": "GI50", "setting": "[18]", "result": 14.7, "unit": "µM"},
      {"measurement": "TGI", "setting": "[18]", "result": 28.2, "unit": "µM"},
      {"measurement": "TGI", "setting": "[19]", "result": 20.2, "unit": "µM"},
      {"measurement": "GI50", "setting": "[20]", "result": 16.4, "unit": "µM"},
      {"measurement": "TGI", "setting": "[20]", "result": 33.4, "unit": "µM"},
      {"measurement": "GI50", "setting": "[21]", "result": 15.7, "unit": "µM"},
      {"measurement": "TGI", "setting": "[21]", "result": 41.2, "unit": "µM"},
      {"measurement": "GI50", "setting": "[22]", "result": 11.1, "unit": "µM"},
      {"measurement": "TGI", "setting": "[22]", "result": 33, "unit": "µM"},
      {"measurement": "GI50", "setting": "[23]", "result": 22.5, "unit": "µM"},
      {"measurement": "TGI", "setting": "[23]", "result": 59.2, "unit": "µM"},
      {"measurement": "GI50", "setting": "[24]", "result": 39.5, "unit": "µM"},
      {"measurement": "TGI", "setting": "[24]", "result": "> 100", "unit": "µM"},
      {"measurement": "GI50", "setting": "[25]", "result": 58, "unit": "µM"},
      {"measurement": "TGI", "setting": "[25]", "result": "> 100", "unit": "µM"},
      {"measurement": "GI50", "setting": "[26]", "result": 18.1, "unit": "µM"},
      {"measurement": "TGI", "setting": "[26]", "result": 39.8, "unit": "µM"},
      {"measurement": "GI50", "setting": "[27]", "result": 15.3, "unit": "µM"},
      {"measurement": "TGI", "setting": "[27]", "result": 38.5, "unit": "µM"},
      {"measurement": "GI50", "setting": "[28]", "result": 15.4, "unit": "µM"},
      {"measurement": "TGI", "setting": "[28]", "result": 31.2, "unit": "µM"},
      {"measurement": "GI50", "setting": "[29]", "result": 16.9, "unit": "µM"},
      {"measurement": "TGI", "setting": "[29]", "result": 36.5, "unit": "µM"},
      {"measurement": "GI50", "setting": "[30]", "result": 14.3, "unit": "µM"},
      {"measurement": "TGI", "setting": "[30]", "result": 28.6, "unit": "µM"}
    ]}
  ]
}
